# According to patent publication US20090227503A1, “PARATHYROID HORMONE TREATMENT FOR ENHANCED ALLOGRAFT AND TISSUE-ENGINEERED RECONSTRUCTION OF BONE DEFECTS” (UNIVERSITY OF ROCHESTER, priority 2008, published 2009):
# Key:
# [1] = tested on: femoral allograft; assay: Mouse femoral allograft, torsion testing of grafted femurs (Example 1); assay type: in vivo, C57B1/6 mice
# Description: Femoral allograft surgeries were performed on C57B1/6 mice as previously described. Briefly, a 4 mm mid-diaphyseal segment was removed by osteotomizing the femur and a processed allograft was implanted and secured in place with a stainless steel intramedullary (IM) pin. After 1 week, 8 mice were given daily subcutaneously injections of 0.4 mg/kg PTH (1-34) (Forteo, Eli Lilly and Company, Indianapolis, Ind.) while 5 mice with grafts were given the same volume of saline daily, serving as controls. Animals were sacrificed 6 weeks after surgery, the grafted femurs were carefully dissected and cleaned without disrupting the callus, and the IM pin was carefully removed. The femurs were then stored frozen at −80° C. until evaluation. After imaging, the ends of the femurs were cemented into 6.35 mm square aluminum tubes using PMMA in a custom jig to ensure axial alignment and maintain a gage length of 7.3±0.8 mm. Samples were then mounted on an EnduraTec TestBench™ system with a 200 N·mm torque cell (Bose Corp., Minnetonka, Minn.) and tested in torsion at a rate of […] until failure to determine the torsional stiffness, ultimate torque, ultimate rotation, and strain energy to failure. Mode of Failure was determined by x-ray after testing. As described previously (Reynolds D G, et al; J. Biomech. 2007; E-pub May 22) the mode of failure can be categorized by location of the failure. “Pre-union” failures occur at the graft-host junction resulting in an intact graft that simply pulled out from the callus. “Early union” failures occur near the graft-host junction, but involve partial fragmentation of the graft or host bone.
# [2] = tested on: non-union tibial fracture; assay: Union Area from clinical CT of a patient with non-union tibial fracture; assay type: in vivo, human; details: one patient, after 4 months of teriparatide treatment
# Text: We used our custom MATLAB software to contour the segment of bone on one side of the fracture site similarly to contouring around the murine graft. The surface area forming union to the other side of the fracture was then estimated by the software. […] FIG. 12 illustrates clinical x-rays of an anonymous patient's fractured tibia before and after 4 months of teriparatide therapy, 160 and 165, respectively and CT scan data of the patient before and after 4 months of teriparatide therapy, 170 and 175, respectively; and Union Area, shown in grey in 170 and 175, of the patient before and after 4 months of teriparatide therapy, 180 and 185, respectively. The effects of teriparatide on fracture healing were quantified as a 2.8 fold increase in Union Area.
# [3] = tested on: contralateral intact femurs; assay: Torsion testing of contralateral intact femurs (Example 4); assay type: in vivo, mice
# Description: Four-mm long bone allografts were harvested from donor mice, and were processed and implanted into intecalary defects 195 in the femur of other mice and secured in place using a stainless steel intramedullary pin 190, as shown in FIG. 13. One week after surgery, daily injections of 40 μg/kg hrPTH (1-34) (Lilly, Inc., Indianapolis, Ind.) were initiated in half of the mice, while the others received injections of saline control. Weekly x-rays were taken to monitor progression (Faxitron X-Ray LLC, Wheeling, Ill.).
# One cohort of the study groups used 14 mice from each treatment (PTH and control) for imaging and mechanical material testing and were sacrificed 6 weeks after surgery. Each femur was harvested by disarticulating the hip and knee and removing the intramedullary stainless-steel pin. Specimens were moistened with saline and frozen at −20° C. until thawed for micro-CT imaging and torsion testing. Specimens were scanned at […] isotropic resolution using the Scanco VivaCT 40 (Scanco Medical AG, Bassersdorf, Switzerland). From these 3D images, the graft and callus bone volumes (BVGraft, BVCallus) were measured by manual segmentation, followed by standardized thresholding at a grayscale corresponding to 750 mgHA/cm^3. The cross-sectional polar moment of inertias (PMI) were computed for each slice throughout the grafted region and the maximum, minimum and average PMI (PMIMax, PMIMin, PMIAve) were investigated to determine their contribution to the biomechanics of the grafted femurs.
# The Union Ratio was also calculated. The Union Ratio measures the graft surface area upon which mineralized callus has formed. If the voxels adjacent to the graft surface are boney callus, the area of that region of the graft is measured and normalized to the total graft surface area. Imaging data (not shown) indicated the bare surface of the graft in blue, with regions of union to the callus depicted as red. Each half (proximal and distal) of the graft was evaluated separately and the lesser ratio of union area to total graft surface area was given as the Union Ratio for that specimen. Callus formation that bridged from host-to-host over the graft was determined by evaluating serial axial cross sections from micro-CT images and given a binary result. These samples were then mechanically tested in torsion. Yield torque (TYield), ultimate torque (TUlt), torsional rigidity (TR), toughness (or work to failure) and the twist at ultimate torque were determined for each specimen. Finally, the mode of failure for each specimen was determined using an x-ray image analysis (not shown).
# [4] = tested on: callus vasculature of grafted femurs; assay: Callus vascularization by micro-CT after vascular perfusion (Example 4); assay type: in vivo, mice; details: for vessel volume within callus, more in saline treated than PTH treated specimens: not significant, n=4 per group
# Description: A second cohort of 16 animals underwent the same surgery with sacrifice of 8 animals at 4 weeks and 8 animals at 6 weeks post-surgery to evaluate the degree of vascularization of the graft and callus region using vascular profusion as described previously (Duvall 2004). Half of the animals were treated with PTH, and the other half with saline.
# On the day of sacrifice, animals were injected with a fatal dose of ketamine and xylazine and their vasculature was perfused using a syringe pump through a needle placed into the left ventricle of the heart. The right atrium was also punctured to allow the blood to drain out. They were first perfused with heparinized (100 units/ml) saline to prevent blood clotting, followed by 10% neutral-buffered formalin, and lastly with lead-chromate contrast agent (Microfil 122, Flow Tech, Inc. Carver, Mass.). Samples were fixed in 10% formalin overnight followed by harvest of the femur and pin extraction. Samples were micro-CT scanned once after fixation, and again after EDTA decalcification. Using both scans the vasculature was evaluated within the mineralized callus. The vessel volume, thickness, spacing and vessel number was determined.
# [5] = 0.4 mg/kg PTH (1-34) s.c. daily, 6 weeks after surgery, Mean (Standard Deviation)
# [6] = of 8 PTH treated mice, all 5 controls pre-union
smiles,measurement,setting,value
"CC[C@H](C)[C@H](NC(=O)[C@H](CCC(=O)O)NC(=O)[C@H](CO)NC(=O)[C@@H](NC(=O)[C@@H](N)CO)C(C)C)C(=O)N[C@@H](CCC(N)=O)C(=O)N[C@@H](CC(C)C)C(=O)N[C@@H](CCSC)C(=O)N[C@@H](Cc1cnc[nH]1)C(=O)N[C@@H](CC(N)=O)C(=O)N[C@@H](CC(C)C)C(=O)NCC(=O)N[C@@H](CCCCN)C(=O)N[C@@H](Cc1cnc[nH]1)C(=O)N[C@@H](CC(C)C)C(=O)N[C@@H](CC(N)=O)C(=O)N[C@@H](CO)C(=O)N[C@@H](CCSC)C(=O)N[C@@H](CCC(=O)O)C(=O)N[C@@H](CCCN=C(N)N)C(=O)N[C@H](C(=O)N[C@@H](CCC(=O)O)C(=O)N[C@@H](Cc1c[nH]c2ccccc12)C(=O)N[C@@H](CC(C)C)C(=O)N[C@@H](CCCN=C(N)N)C(=O)N[C@@H](CCCCN)C(=O)N[C@@H](CCCCN)C(=O)N[C@@H](CC(C)C)C(=O)N[C@@H](CCC(N)=O)C(=O)N[C@@H](CC(=O)O)C(=O)N[C@H](C(=O)N[C@@H](Cc1cnc[nH]1)C(=O)N[C@@H](CC(N)=O)C(=O)N[C@@H](Cc1ccccc1)C(=O)O)C(C)C)C(C)C [PTH, PTH (1-34)]",Energy to failure,[1]; [5],0.25 (0.31)
same,Normalized Rotation at TUlt,[1]; [5],0.97 (0.23) deg/mm gage length
same,Ultimate Torque,[1]; [5],13.5 (4.7) N*mm
same,normalized rotation at peak torque,[1]; 6 weeks,0.97 degrees per mm of gage length
same,stiffness as share of normal unoperated femur properties,[1]; after 6 weeks of healing,~120%
same,strength as share of normal unoperated femur properties,[1]; after 6 weeks of healing,~67%
same,"specimens failing in ""early union"" mode",[1]; [6],2
same,"specimens with ""mature union"" failure",[1]; [6],1
same,enhancement in ultimate torque,"[1]; vs saline, 6 weeks",1.65 fold
same,stiffness relative to saline (times stiffer),"[1]; vs saline, 6 weeks",3.3 times
same,increase in mineralized Union Area,[2],2.8 fold
same,torsional mechanics of intact contralateral femurs,[3]; 6 weeks of PTH treatment,did not show a significant increase in torsional mechanics
same,TR,"[3]; PTH Contra, 6 weeks, mean",1284 N*mm^2/Rad
same,Tult,"[3]; PTH Contra, 6 weeks, mean",22.6 N*mm
same,Twist at Tult,"[3]; PTH Contra, 6 weeks, mean",0.029 Rad/mm
same,Tyield,"[3]; PTH Contra, 6 weeks, mean",15.1 N*mm
same,Work to TUlt,"[3]; PTH Contra, 6 weeks, mean",0.401 Nmm*Rad/mm
same,Work to TYield,"[3]; PTH Contra, 6 weeks, mean",0.151 Nmm*Rad/mm
same,"vessel volume within callus, more in saline treated than PTH treated specimens",[4]; 4 weeks,74%
same,"blood vessel diameter, greater in saline treated than PTH treated specimens","[4]; 4 weeks, p=0.05",55%
same,"blood vessel diameter, greater in saline treated than PTH treated specimens",[4]; 6 weeks,78%
same,"vessel volume within callus, more in saline treated than PTH treated specimens",[4]; 6 weeks,88%
same,specimens in which the intramedullary blood vessel had bridged the length of the graft,"[4]; by 6 weeks, saline 3 of 4",4 of 4
